Results: PMC6949113, “Preclinical evaluation of AT-527, a novel guanosine nucleotide prodrug with potent, pan-genotypic activity against hepatitis C virus” (PLoS ONE, 2020)
Like-named read-outs stand apart in the source and are kept apart here.

Experiments:
[1] = test system: K562 cells; assay: K562 cytotoxicity (XTT, 3 days); assay type: cell-based, human
Experimental: (§1) Mitochondrial toxicity assay. K562 leukemia cells (ATCC, CCL-243) seeded in 96-well plates (1x10^5 cells/well) were incubated in triplicate with test or positive control compounds in RPMI containing glucose, 10% FBS and 2 mM L-glutamine. […] Viability was compared with untreated cells to determine TC50 values. Separately, K562 cells were incubated in triplicate with test compounds in glucose-free RPMI supplemented with 10 mM galactose. Test compounds diluted in RPMI containing glucose were evaluated in parallel.

[2] = test system: K562 cells; assay: Mitochondrial toxicity assay (Mitochondrial ToxGlo, glucose/galactose); assay type: cell-based, human
Experimental: as §1

[3] = test system: PC3 cells; assay: PC3 cytotoxicity (XTT, 5 days); assay type: cell-based, human
Experimental: (§2) Mitobiogenesis toxicity assay. […] One plate was used to measure cell viability by XTT staining. Cells in the remaining two plates were fixed with 4% paraformaldehyde for 20 min, washed thrice with DPBS, and 0.5% acetic acid added for 5 min to block endogenous alkaline phosphatase activity. Nuclear DNA encoded Complex II SDH-A mitochondrial protein and mitochondrial encoded Complex IV COX-1 protein were measured spectrophotometrically using the Abcam Mitobiogenesis ELISA kit (Cambridge, UK) per the manufacturer’s instructions.

[4] = test system: SDH-A protein in PC3 cells; assay: Mitobiogenesis toxicity assay, SDH-A; assay type: cell-based, human; settings: 5 days, read-out: Mitogenesis IC50 SDH-A
Experimental: as §2

[5] = test system: COX-1 protein in PC3 cells; assay: Mitobiogenesis toxicity assay, COX-1; assay type: cell-based, human; settings: 5 days, read-out: Mitogenesis IC50 COX-1
Experimental: as §2

[6] = Intracellular metabolism in human hepatocytes; assay type: in vitro ADME; settings: human hepatocytes; low to undetectable
Experimental: (§3) Hepatocytes. […] Cryopreserved male mouse (CD1), and fresh male Beagle dog and male cynomolgus monkey hepatocytes were obtained from BioreclamationIVT (Baltimore, MD) and were similarly plated with Matrigel in 6- or 24-well plates and maintained overnight in InVitroGRO™HI medium with Torpedo™ antibiotic (BioreclamationIVT). The protocol described above for measuring AT-511 and its metabolites in Huh-7 cells was repeated with the five different hepatocytes. Untreated cells were collected at 24 h, and the protein content of the cell lysates were determined using a bicinchoninic acid protein assay kit to assess the number of cells in each incubation. Separately, plated human hepatocytes were incubated for 6 h with 100 μM AT-511, followed by washout periods of 0, 2, 6, 18 and 30 h.
(§4) S3 Protocol. LC-MS/MS analysis of AT-511 and metabolites in cultured cells. The supernatant extracts of each hepatocyte and Huh-7 cell incubation were separately analyzed by four different LC-MS/MS methods for quantitation of phosphoramidates, nucleosides, monophosphates, and triphosphates (methods 1, 2, 3 and 4, respectively), using synthetic reference standards of actually and potentially present compounds and using structurally related analogs as internal standards. Briefly, a Luna PFP (2), 5 µm, 100 x 4.6 mm column and an AB Sciex API-6500 mass spectrometer (ESI positive ion, MRM mode) were used for methods 1-3 and an XBridge Oligonucleotide, BEH C18, 2.5 µm, 50 x 2.1 mm column and a Thermo QE Plus mass spectrometer (electrospray, negative ion mode) were used for method 4. For methods 1 and 2, mobile phases A (10 mM ammonium acetate in water) and B (acetonitrile:methanol, 1:1, v/v) were used to elute samples (5 µL) at 1 mL/min with 15% B for 1.5 min followed by a linear gradient to 75% B over 1 min (method 1) or with 54% B for 1.3 min followed by a linear gradient to 90% B over 1.2 min. Method 3 was the same except mobile phase A was 0.3% acetic acid in water, […] and samples were eluted with 3% B for 3 min followed by a linear gradient to 55% B over 1.2 min. For method 4, mobile phase A (3 mM ammonium formate with 10 mM dimethylhexylamine (DMHA) in water) and mobile phase B (3 mM ammonium formate with 10 mM DMHA in acetonitrile:water, 1:1, v/v) were used to elute samples at 0.4 mL/min with 0% B for 1.5 min followed by a linear gradient to 100% B over 2 min and ending with an isocratic elution for 0.5 min at 100% B.

[7] = Intracellular metabolism in mouse hepatocytes; assay type: in vitro ADME, mouse (CD1); settings: low to undetectable
Experimental: as §3, §4

[8] = Intracellular metabolism in dog hepatocytes; assay type: in vitro ADME, Beagle dog; settings: low to undetectable
Experimental: as §3, §4

[9] = Rat pharmacokinetic study, plasma; assay type: in vivo, Sprague-Dawley rat; settings: for plasma concentration, individual rats: AT-527 500 mg/kg oral, male 1-3, female 7-9, BQL: <0.0017 AT-511, <0.0022 M1, <0.0032 AT-273, M4
[10] = Monkey PK study, plasma; assay type: in vivo, cynomolgus monkey; settings: for plasma concentration: male cynomolgus monkeys; for AUC(0-t) / Cmax / MRT last / Tmax: male, cynomolgus, cynomolgus monkey, in vivo, po;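 as to plasma concentration: concentrations in nmol/mL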
Text: Monkey PK study. Male non-naïve cynomolgus monkeys were obtained from Hainan Jingang Laboratory Animal Co., Ltd. (Hainan, China), group housed during the 5-day acclimation period or individually housed during the study in stainless steel mesh cages, provided ad libitum access to RO water, fed twice daily (~120 g Certified Monkey Diet daily; Beijing Vital Keao Feed Co., Ltd., Beijing, China) and given daily treats of fresh fruit. Additional environmental enrichment included classical music and cartoons. Three groups of 5 monkeys each were administered 30, 100 or 300 mg/kg AT-527 as a powder filled in empty porcine hard gelatin capsules (size 0). The monkeys were fasted overnight prior to dosing and fed 4 h after dosing. Three dosages were selected to provide assessments of dose proportionality, the top two representing potential doses for a repeated oral dose toxicity study in monkeys, and the lowest predicted to be more therapeutically relevant. A pill gun was used to place the capsule beyond the root of the animals’ tongues and their mouths were held loosely closed for approximately 30 sec to allow them to move the jaw and swallow the capsule. Immediately following capsule administration, 20 mL of water was given by mouth and then the mouth was opened to ensure the capsule was swallowed. Blood samples (~0.6 mL) were collected up to 72 h from three animals per dose group, and up to 4 h from the remaining two animals in each group, at the same time points described for rats. […] Blood samples were collected with a syringe from a peripheral blood vessel from restrained, non-sedated animals, immediately transferred to pre-chilled tubes containing ~1 mg K2EDTA•2H20 and 20 μL of 5 mM dichlorvos solution, mixed and placed on ice until plasma was prepared by centrifugation as described for rats. Immediately after centrifugation, plasma samples were extracted with 4 volumes ISS2, and the supernatants were clarified by centrifugation (12,000 rpm, 10 min, 4°C) and stored at ≤ -60°C until analyzed by LC-MS/MS as described below. After the 4-hr blood collection, two monkeys per dose group were anesthetized with intravenous injection of pentobarbital sodium (60 mg/kg) and then euthanized as described for rats. […] All analytes were quantitated by LC-MS/MS as described below.
LC-MS/MS analysis of rat and monkey plasma and tissue homogenate supernatants. For the analysis of AT-511 in rat plasma, aliquots were extracted with 10 volumes ISS2. The supernatants were clarified by centrifugation (4000 rpm for 10 min at 4°C) and 3 μL samples were injected onto an Acuity BEH C18 1.7 μm, 2.1 × 50 mm column and a Sciex API 4000 mass spectrometer (ESI positive ion, MRM mode). Mobile phases A (0.025% formic acid (FA) and 1 mM ammonium acetate (AA) in 5% ACN in water) and B (0.025% FA and 1 mM AA in 95% ACN in water) were used to elute samples (3 μL) at 0.6 mL/min with 10% B for 0.3 min followed by linear gradients to 60% B over 0.6 min and to 90% B over 0.2 min, and ending with 90% B for 0.4 min.
PK data analysis. […] The linear/log trapezoidal rule was applied in obtaining the PK parameters.

[11] = K562 cells, glucose medium, 3 days, XTT
[12] = K562, glucose-free galactose medium, 2 h, inhibition of cellular ATP levels, read-out: MF (Gal) IC50, mitochondrial function
[13] = K562, glucose-free galactose medium, 2 h, measure of necrosis, read-out: MI (Gal) IC50, cell membrane integrity
[14] = Homo sapiens, K562, 2 h, read-out: MF (Gal) IC50, mitochondrial function
[15] = Homo sapiens, K562, glucose-free galactose medium, 2 h, measure of necrosis, read-out: MI (Gal) IC50, cell membrane integrity
[16] = both sexes, Sprague-Dawley, rat, in vivo, po, 500 mg/kg

## N#CC(C#N)=NNc1cccc(Cl)c1 [CCCP]
[1]; [11]
  Cytotoxicity TC50: 8.8 µM
[2]; [12]
  IC50: < 0.6 µM
[2]; [13]
  IC50: 7 µM
[3]; PC3 cells, 5 days, XTT
  Cytotoxicity TC50: 17.7 µM
[4]
  IC50: 13.5 µM
[5]
  IC50: 15.1 µM

## O=C(N[C@H](CO)[C@H](O)c1ccc([N+](=O)[O-])cc1)C(Cl)Cl [Chloramphenicol]
[1]; human, 3 days
  Cytotoxicity TC50: 50.9 µM
[2]; [14]
  IC50: > 100 µM
[2]; [15]
  IC50: > 100 µM
[3]; human, 5 days
  Cytotoxicity TC50: >100 µM
[4]; Homo sapiens, PC-3, 120 h
  IC50: > 100 µM
[5]; Homo sapiens, PC-3, 120 h
  IC50: 95.3 µM

## CNc1nc(N)nc2c1ncn2[C@@H]1O[C@H](CO)[C@@H](O)[C@@]1(C)F [M4]
[6]
  intracellular levels of nucleoside metabolites: < 10 pmol/10^6 cells
[7]
  intracellular levels of nucleoside metabolites: < 10 pmol/10^6 cells
[8]
  intracellular levels of nucleoside metabolites: < 10 pmol/10^6 cells
[9]; 48.0 h
  plasma concentration, individual rats: BQL
[9]; 72.0 h
  plasma concentration, individual rats: BQL
[9]; [16]
  AUC(0-t): 207 ± 56.1 µM·h
  Cmax: 28800 ± 8500 nM
  MRT last: 6.41 ± 1.06 h
[10]; single oral AT-527 100 mg/kg, 0.500 h, monkey 1
  plasma concentration: BQL
[10]; single oral AT-527 100 mg/kg, 72.0 h, monkey 2
  plasma concentration: BQL
[10]; single oral AT-527 300 mg/kg, 0.500 h, monkey 1
  plasma concentration: BQL
[10]; single oral AT-527 300 mg/kg, 0.500 h, monkey 2
  plasma concentration: BQL
[10]; single oral AT-527 300 mg/kg, 0.500 h, monkey 3
  plasma concentration: BQL
[10]; single oral AT-527 300 mg/kg, 1.00 h, monkey 1
  plasma concentration: BQL
[10]; single oral AT-527 300 mg/kg, 72.0 h, monkey 3
  plasma concentration: BQL
[10]; 30 mg/kg
  AUC(0-t): 18.2 ± 1.7 µM·h
  Cmax: 670 ± 140 nM
  MRT last: 22.4 ± 2.4 h
  Tmax: 14.7 ± 8.1 h
[10]; 100 mg/kg
  AUC(0-t): 39.2 ± 15 µM·h
  Cmax: 1300 ± 490 nM
  MRT last: 22.3 ± 4.1 h
  Tmax: 15.3 ± 7.6 h
[10]; 300 mg/kg
  AUC(0-t): 53.9 ± 31.7 µM·h
  Cmax: 1660 ± 490 nM
  MRT last: 26.6 ± 9.6 h
  Tmax: 17.3 ± 11.5 h

## C[C@@H]1CC[C@@]2(OC1)O[C@H]1[C@@H](O)[C@H]3[C@@H]4CC[C@H]5C[C@@H](O[C@@H]6O[C@H](CO)[C@H](O[C@@H]7O[C@H](CO)[C@@H](O)[C@H](O[C@@H]8OC[C@@H](O)[C@H](O)[C@H]8O)[C@H]7O[C@@H]7O[C@H](CO)[C@H](O)[C@H](O[C@@H]8O[C@H](CO)[C@@H](O)[C@H](O)[C@H]8O)[C@H]7O)[C@H](O)[C@H]6O)[C@H](O)C[C@]5(C)[C@H]4CC[C@]3(C)[C@H]1[C@@H]2C [Digitonin]
[1]; [11]
  Cytotoxicity TC50: 8.1 µM
[2]; [14]
  IC50: 27.9 µM
[2]; [15]
  IC50: 31.9 µM
[3]; PC3 cells, 5 days, XTT
  Cytotoxicity TC50: 27.2 µM
[4]; Homo sapiens, PC-3, 120 h
  IC50: 40.7 µM
[5]; Homo sapiens, PC-3, 120 h
  IC50: 32.6 µM

## Nc1ccn([C@H]2CC[C@@H](CO)O2)c(=O)n1 [ddC]
[1]
  Cytotoxicity TC50: >20 µM
[2]; [12]
  IC50: > 20 µM
[2]; [13]
  IC50: > 20 µM
[3]
  Cytotoxicity TC50: >20 µM
[4]
  IC50: > 20 µM
[5]
  IC50: 1.1 µM
